From patent US20230373985A1 (Origenis Gmbh, priority 2020, published 2023)

Tests used:
[1] = target: T1, wt human TYK2, catalytic site (Homo sapiens, UniProt P29597); assay: HTRF KinEASE assay, TYK2; type: biochemical; conditions: 1 μM ATP; read-out: IC50, Activity Toward TYK2
T1 construct: wt human TYK2, catalytic site; purchased SignalChem
T1 sequence (P29597 897-1176 limits assumed): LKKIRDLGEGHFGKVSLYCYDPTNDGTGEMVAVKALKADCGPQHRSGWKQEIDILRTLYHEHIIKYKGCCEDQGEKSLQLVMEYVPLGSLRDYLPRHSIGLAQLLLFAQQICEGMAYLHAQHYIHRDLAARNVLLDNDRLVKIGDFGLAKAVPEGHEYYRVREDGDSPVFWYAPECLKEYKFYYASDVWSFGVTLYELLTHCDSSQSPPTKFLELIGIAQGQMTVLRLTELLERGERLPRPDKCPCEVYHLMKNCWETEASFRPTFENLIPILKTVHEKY
Summary of the method: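 HTRF KinEASE-TK readout with 1 μM biotinylated TK substrate in 1× kinase buffer, ≥30 min at room temperature, then antibody/streptavidin-XL665 detection for 60 min. TYK2 at 2 nM with 1 μM ATP; JAK2 at 1 nM with 100 μM ATP. Analysis uses emission ratios.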

[2] = target: T2, wt human LRRK2, catalytic site (Homo sapiens, UniProt Q5S007); assay: TR-FRET LanthaScreen Eu Kinase Binding Assay, LRRK2 wt; conditions: one range stated for wt and G2019, read-out: IC50, Activity Toward LRRK2(Wt)
T2 construct: 5 nM wt human LRRK2, catalytic site; purchased ThermoFisher
T2 sequence (Q5S007 970-2527 limits assumed): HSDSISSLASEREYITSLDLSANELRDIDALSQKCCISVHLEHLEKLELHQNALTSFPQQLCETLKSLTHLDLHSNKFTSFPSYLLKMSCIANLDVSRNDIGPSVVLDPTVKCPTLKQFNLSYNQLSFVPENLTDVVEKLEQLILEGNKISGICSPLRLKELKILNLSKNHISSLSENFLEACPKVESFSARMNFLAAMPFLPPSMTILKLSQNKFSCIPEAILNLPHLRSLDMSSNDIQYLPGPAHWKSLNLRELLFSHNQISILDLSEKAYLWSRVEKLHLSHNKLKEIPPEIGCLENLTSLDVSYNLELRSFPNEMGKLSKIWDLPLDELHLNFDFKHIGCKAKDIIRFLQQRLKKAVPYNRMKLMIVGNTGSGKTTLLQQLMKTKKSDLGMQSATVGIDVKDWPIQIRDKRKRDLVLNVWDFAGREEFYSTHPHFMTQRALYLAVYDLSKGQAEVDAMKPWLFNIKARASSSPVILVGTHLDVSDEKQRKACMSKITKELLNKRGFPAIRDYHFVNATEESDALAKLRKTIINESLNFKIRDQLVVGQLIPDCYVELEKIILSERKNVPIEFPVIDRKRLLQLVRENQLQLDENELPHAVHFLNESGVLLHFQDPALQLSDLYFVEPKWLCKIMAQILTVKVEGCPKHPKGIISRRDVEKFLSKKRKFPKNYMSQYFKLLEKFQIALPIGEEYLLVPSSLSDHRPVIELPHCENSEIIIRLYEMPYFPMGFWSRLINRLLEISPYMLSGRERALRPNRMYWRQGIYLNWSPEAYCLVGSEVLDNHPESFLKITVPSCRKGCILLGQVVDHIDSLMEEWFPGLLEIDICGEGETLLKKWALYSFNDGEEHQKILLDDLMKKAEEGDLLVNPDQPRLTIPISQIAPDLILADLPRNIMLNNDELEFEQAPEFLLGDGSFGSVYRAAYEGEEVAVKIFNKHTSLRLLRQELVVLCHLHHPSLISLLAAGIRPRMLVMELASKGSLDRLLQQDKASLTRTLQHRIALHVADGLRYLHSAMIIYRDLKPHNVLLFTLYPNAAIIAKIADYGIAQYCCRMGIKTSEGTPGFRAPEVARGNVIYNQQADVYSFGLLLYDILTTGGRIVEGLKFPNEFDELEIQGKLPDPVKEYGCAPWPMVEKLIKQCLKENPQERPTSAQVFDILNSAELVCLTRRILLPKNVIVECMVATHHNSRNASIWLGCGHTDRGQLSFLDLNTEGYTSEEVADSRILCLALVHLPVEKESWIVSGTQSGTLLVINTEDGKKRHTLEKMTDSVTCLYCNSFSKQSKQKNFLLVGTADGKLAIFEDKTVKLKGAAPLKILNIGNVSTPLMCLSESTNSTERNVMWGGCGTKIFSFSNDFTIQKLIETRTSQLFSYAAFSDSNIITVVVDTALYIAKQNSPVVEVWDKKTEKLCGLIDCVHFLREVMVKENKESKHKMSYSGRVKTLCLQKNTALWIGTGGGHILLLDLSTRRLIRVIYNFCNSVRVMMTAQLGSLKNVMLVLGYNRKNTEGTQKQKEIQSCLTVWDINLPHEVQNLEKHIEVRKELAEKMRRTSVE
Summary of the method: (§1)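 Tracer-displacement binding: compound mixed with kinase/Eu-antibody and Kinase Tracer 236 in 1× Kinase Buffer A, 1 h at room temperature, then TR-FRET emission ratio read. LRRK2 (wt or G2019S) 5 nM with 2 nM Eu-anti-GST, 10 nM tracer; NUAK1 8 nM with 2 nM Eu-anti-His, 5 nM tracer.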

[3] = target: T3, G2019S human LRRK2, catalytic site (Homo sapiens, UniProt Q5S007, G2019S); assay: TR-FRET LanthaScreen Eu Kinase Binding Assay, LRRK2 G2019S; conditions: LRRK2(G2019); one range stated for wt and G2019; read-out: IC50, Activity Toward LRRK2(G2019)
T3 construct: G2019S human LRRK2, catalytic site; purchased ThermoFisher
T3 sequence (Q5S007 970-2527 G2019S limits assumed): as the sequence (Q5S007 970-2527 limits assumed) above, with G1050S counted along it
Summary of the method: as §1

[4] = target: T4, wt human NUAK1, full length (Homo sapiens, UniProt O60285); assay: TR-FRET LanthaScreen Eu Kinase Binding Assay, NUAK1; conditions: read-out: IC50, Activity Toward NUAK1
T4 construct: 8 nM wt human NUAK1, full length (ThermoFisher/USA); purchased ThermoFisher
T4 sequence (O60285 1-661): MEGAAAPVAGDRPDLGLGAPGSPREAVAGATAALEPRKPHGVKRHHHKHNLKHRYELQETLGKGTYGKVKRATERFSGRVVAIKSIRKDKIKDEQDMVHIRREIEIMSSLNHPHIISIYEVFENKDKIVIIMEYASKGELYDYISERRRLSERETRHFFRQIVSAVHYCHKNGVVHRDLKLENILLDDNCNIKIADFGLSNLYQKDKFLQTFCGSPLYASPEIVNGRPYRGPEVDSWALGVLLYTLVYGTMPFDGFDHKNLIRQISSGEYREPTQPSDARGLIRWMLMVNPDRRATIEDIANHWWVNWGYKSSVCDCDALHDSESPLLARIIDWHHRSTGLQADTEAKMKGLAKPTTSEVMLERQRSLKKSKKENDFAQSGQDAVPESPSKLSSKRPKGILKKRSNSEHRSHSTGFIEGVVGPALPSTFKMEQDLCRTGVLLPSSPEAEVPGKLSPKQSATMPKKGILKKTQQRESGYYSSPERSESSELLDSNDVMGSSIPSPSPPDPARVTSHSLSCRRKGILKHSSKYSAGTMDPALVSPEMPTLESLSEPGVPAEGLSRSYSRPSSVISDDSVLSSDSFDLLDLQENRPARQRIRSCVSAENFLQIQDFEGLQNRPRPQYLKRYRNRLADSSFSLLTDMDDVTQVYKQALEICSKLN
Protocol: The basic protocol for TR-FRET LanthaScreen Eu Kinase Binding Assay inhibitor studies were performed as follows. LanthaScreen Kinase Binding Assays (ThermoFisher/USA) to evaluate inhibitors were performed by addition of 5 μL of test compound in corresponding DMSO dilutions/5 μl of kinase/antibody mixture, 5 μL of tracer into 384 well small volume plates. After incubation for 1 hour at room temperature, plates were read. Data analysis of emission ratios was according LanthaScreen Eu Kinase Binding Assay protocol.
Kinase and assay components were adjusted to final concentrations according to kit protocol. For LRRK2: 5 nM wt human LRRK2, catalytic site, or G2019S human LRRK2, catalytic site (ThermoFisher/USA), 2 nM Eu-Anti-GST Antibody, 10 nM Kinase Tracer 236 in 1× Kinase Buffer A. For NUAK1: 8 nM wt human NUAK1, full length (ThermoFisher/USA), 2 nM Eu-Anti-His Antibody, 5 nM Kinase Tracer 236 in 1× Kinase Buffer A.

[5] = target: T5, wt human JAK1, catalytic site (Homo sapiens, UniProt P23458); assay: HTRF KinEASE assay, JAK1; type: biochemical; conditions: 2.5 μM ATP; read-out: IC50, Activity Toward JAK1
T5 construct: wt human JAK1, catalytic site; purchased ThermoFisher
T5 sequence (P23458 875-1153 limits assumed): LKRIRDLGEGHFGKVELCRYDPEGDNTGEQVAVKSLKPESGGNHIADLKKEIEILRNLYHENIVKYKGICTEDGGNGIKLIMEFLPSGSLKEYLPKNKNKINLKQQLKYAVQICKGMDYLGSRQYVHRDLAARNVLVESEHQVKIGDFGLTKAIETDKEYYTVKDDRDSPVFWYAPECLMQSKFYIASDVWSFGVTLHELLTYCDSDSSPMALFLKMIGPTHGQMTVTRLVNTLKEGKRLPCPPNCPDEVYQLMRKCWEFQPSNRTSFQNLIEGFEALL
Summary of the method: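 Two-step HTRF KinEASE assay: compound, kinase/biotinylated TK substrate and ATP were incubated at least 30 min at room temperature. Antibody plus streptavidin-XL665 was then added and plates were read after 60 min. Inhibition was derived from emission ratios according to the kit protocol.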

SMILES | IC50 [1] | IC50 [2] | IC50 [3] | IC50 [4] | IC50 [5]
NC(=O)c1nn(-c2c(F)cccc2Cl)cc1Nc1ccc(C(=O)NC2CCCNC2)cc1 (stereo not shown) [compound 38, 1-(2-chloro-6-fluorophenyl)-4-((4-(piperidin-3-ylcarbamoyl)phenyl)amino)-1H-pyrazole-3-carboxamide] | 10 to 100 nM | 100 to 1000 nM | 100 to 1000 nM | 10 to 100 nM | 10 to 100 nM
Cn1nncc1-c1ccc(Nc2cn(-c3c(Cl)cccc3Cl)nc2C(N)=O)cc1 [compound 48, 1-(2,6-dichlorophenyl)-4-((4-(1-methyl-1H-1,2,3-triazol-5-yl)phenyl)amino)-1H-pyrazole-3-carboxamide] | 10 to 100 nM | 100 to 1000 nM | 100 to 1000 nM | 100 to 1000 nM | 100 to 1000 nM
NC(=O)c1nn(-c2c(F)cccc2Cl)cc1Nc1ccc(C(=O)N2CC3(CCC3)C2)cc1 [compound 54, 4-((4-(2-azaspiro[3.3]heptane-2-carbonyl)phenyl)amino)-1-(2-chloro-6-fluorophenyl)-1H-pyrazole-3-carboxamide] | 10 to 100 nM | 100 to 1000 nM | 100 to 1000 nM | 100 to 1000 nM | 100 to 1000 nM
Cc1ccnnc1-c1ccc(Nc2cn(-c3c(F)cccc3Cl)nc2C(N)=O)cc1 [compound 56, 1-(2-chloro-6-fluorophenyl)-4-((4-(4-methylpyridazin-3-yl)phenyl)amino)-1H-pyrazole-3-carboxamide] | 10 to 100 nM | 10 to 100 nM | 10 to 100 nM | 100 to 1000 nM | 100 to 1000 nM
NC(=O)c1nn(-c2c(F)cccc2C(F)(F)F)cc1Nc1ccc(C(=O)N2CC3(CCC3)C2)cc1 [compound 61, 4-((4-(2-azaspiro[3.3]heptane-2-carbonyl)phenyl)amino)-1-(2-fluoro-6-(trifluoromethyl)phenyl)-1H-pyrazole-3-carboxamide] | 10 to 100 nM | 100 to 1000 nM | 100 to 1000 nM | 100 to 1000 nM | 100 to 1000 nM
NC(=O)c1nn(-c2c(F)cccc2Cl)cc1Nc1ccc(C(=O)N2CCOCC2)cn1 [compound 68, 1-(2-chloro-6-fluorophenyl)-4-((5-(morpholine-4-carbonyl)pyridin-2-yl)amino)-1H-pyrazole-3-carboxamide] | 10 to 100 nM | 100 to 1000 nM | 100 to 1000 nM | 100 to 1000 nM | 100 to 1000 nM
NC(=O)c1nn(-c2c(Cl)cccc2Cl)cc1Nc1ccc(C(=O)N2CCCCC2)cc1 [compound 82, 1-(2,6-dichlorophenyl)-4-((4-(piperidine-1-carbonyl)phenyl)amino)-1H-pyrazole-3-carboxamide] | 10 to 100 nM | 100 to 1000 nM | 100 to 1000 nM | 100 to 1000 nM | 10 to 100 nM
NC(=O)c1nn(-c2c(F)cccc2Cl)cc1Nc1ccc(-n2ncc3c2CCOC3)cc1 [compound 208, 1-(2-chloro-6-fluorophenyll)-4-((4-(6,7-dihydropyrano[4,3-c]pyrazol-1(4H)-yl)phenyl)amino)-1H-pyrazole-3-carboxamide] | 10 to 100 nM | 10 to 100 nM | 10 to 100 nM | 100 to 1000 nM | 10 to 100 nM
Cn1ccnc1-c1ccc(Nc2cn(-c3c(Cl)cccc3Cl)nc2C(N)=O)cc1 [compound 225, 1-(2,6-dichlorophenyl)-4-((4-(1-methyl-1H-imidazol-2-yl)phenyl)amino)-1H-pyrazole-3-carboxamide] | 10 to 100 nM | 100 to 1000 nM | 100 to 1000 nM | 100 to 1000 nM | 10 to 100 nM
NC(=O)c1nn(-c2c(F)cccc2Cl)cc1Nc1ccc(C(=O)N2CCCCC2)cc1 [compound 228, 1-(2-chloro-6-fluorophenyl)-4-((4-(piperidine-1-carbonyl)phenyl)amino)-1H-pyrazole-3-carboxamide] | 10 to 100 nM | 100 to 1000 nM | 100 to 1000 nM | 100 to 1000 nM | 10 to 100 nM

Next, values leading:

IC50 [1] | IC50 [2] | IC50 [3] | IC50 [4] | IC50 [5] | SMILES
10 to 100 nM | 100 to 1000 nM | 100 to 1000 nM | 100 to 1000 nM | 100 to 1000 nM | CC(C)(C)NC(=O)c1ccc(Nc2cn(-c3c(F)cccc3F)nc2C(N)=O)cc1 [compound 15, 4-((4-(tert-butylcarbamoyl)phenyl)amino)-1-(2,6-difluorophenyl)-1H-pyrazole-3-carboxamide]
10 to 100 nM | 100 to 1000 nM | 100 to 1000 nM | 100 to 1000 nM | 100 to 1000 nM | CCNC(=O)c1ccc(Nc2cn(-c3c(F)cccc3F)nc2C(N)=O)cc1 [compound 16, 1-(2,6-difluorophenyl)-4-((4-(ethylcarbamoyl)phenyl)amino)-1H-pyrazole-3-carboxamide]
10 to 100 nM | 100 to 1000 nM | 100 to 1000 nM | 100 to 1000 nM | 100 to 1000 nM | CC(C)(C)NC(=O)c1ccc(Nc2cn(-c3c(F)cccc3Cl)nc2C(N)=O)cc1 [compound 27, 4-((4-(tert-butylcarbamoyl)phenyl)amino)-1-(2-chloro-6-fluorophenyl)-1H-pyrazole-3-carboxamide]
10 to 100 nM | 100 to 1000 nM | 100 to 1000 nM | 100 to 1000 nM | 100 to 1000 nM | NC(=O)c1nn(-c2c(F)cccc2F)cc1Nc1ccc(C(=O)N2CCOCC2)nc1 [compound 30, 1-(2,6-difluorophenyl)-4-((6-(morpholine-4-carbonyl)pyridin-3-yl)amino)-1H-pyrazole-3-carboxamide]
10 to 100 nM | 100 to 1000 nM | 100 to 1000 nM | 100 to 1000 nM | 10 to 100 nM | CN1CCC(NC(=O)c2ccc(Nc3cn(-c4c(Cl)cccc4Cl)nc3C(N)=O)cc2)CC1 [compound 31, 1-(2,6-dichlorophenyl)-4-((4-((1-methylpiperidin-4-yl)carbamoyl)phenyl)amino)-1H-pyrazole-3-carboxamide]
10 to 100 nM | 10 to 100 nM | 10 to 100 nM | 100 to 1000 nM | 10 to 100 nM | CN1CCC(NC(=O)c2ccc(Nc3cn(-c4c(F)cccc4Cl)nc3C(N)=O)cc2)CC1 [compound 35, 1-(2-chloro-6-fluorophenyl)-4-((4-((1-methylpiperidin-4-yl)carbamoyl)phenyl)amino)-1H-pyrazole-3-carboxamide]
< 10 nM | 100 to 1000 nM | 100 to 1000 nM | 100 to 1000 nM | 10 to 100 nM | NC(=O)c1nn(-c2c(Cl)cccc2Cl)cc1Nc1ccc(C(=O)N2CCN(CC3CC3)CC2)cc1 [compound 86, 4-((4-(4-(cyclopropylmethyl)piperazine-1-carbonyl)phenyl)amino)-1-(2,6-dichlorophenyl)-1H-pyrazole-3-carboxamide]
